pIC50: −log10 of the molar value. Read-outs that look alike come from different tables or passages of the source.
What was measured:
human skin = experiment: Cumulative irritant patch test (RIPT, 21 days) in healthy participants; details: occlusive patch, healthy subjects
Source text: The objective of this study was to assess the primary irritancy potential of Compound A mesylate Topical Cream in human skin using a Repeat Insult Patch Testing (RIPT) over twenty-one (21) days.
This RIPT was an open-label, single-arm (cell), randomized, evaluator-blinded study wherein test products were applied under an occlusive dressing to the upper back or upper arm continuously and repeatedly to the same site for a period of 21 days. Three concentrations of The Cream described in Example 13 (0.1%, 0.03%, 0.01%) and Vehicle (Placebo Cream—0%) were applied to the skin of healthy subjects aged 18-70 with a Fitzpatrick Skin Type of I-III. In addition, one site was treated with 0.4 ml of 0.25% sodium lauryl sulfate (SLS) as a positive control and another site was treated with a plain Webril patch (cotton cloth) which served as a negative control. The total daily dose of Compound A received by each subject was 560 μg (0.4 ml of each of the three concentrations/3 different sites) or approximately 8 μg/kg. The evaluator graded the level of irritation for each test site at every study visit and was blinded as to the identity of the test products. The targeted sample size was at least 25 subjects (n=25) at completion.
Approximately 0.4 ml of each test material was spread uniformly onto a 15 mm diameter circular disc of non-absorbing cotton cloth (Webril) using micropipettes or plastic tuberculin syringes. The treated circular disc was applied to the designated skin site (see Randomization Section below) measuring 15 mm in diameter on the upper arm or upper back. In addition to the test products, one site was treated with 0.4 ml of 0.25% sodium lauryl sulfate (SLS) as a positive control and another site was treated with a plain Webril patch (cotton cloth) as a negative control. Each site was covered with an occlusive tape (Blenderm, 3M) and the entire patch fastened to the skin with Scanpor or Hypafix Tape to ensure intimate contact with the skin. The initial patch was applied on Day 0 and grading began on Day 1.
Subjects returned to the testing facility once daily (Monday to Friday). […] Subjects were questioned and assessed for adverse events as well as any changes in their health or concomitant medications at every study visit. […]
All patches were inspected at each study visit and adhesion issues were noted when present. Patch sites were inspected and irritant reactions provoked during the study were recorded daily (Monday-Friday). […]
The CII was calculated for each product as well as the positive and negative control sites. The CII is the ratio calculated by dividing the sum of the cumulative irritation scores (SCS) from all subjects by the number of subjects in the completed panel×the maximum tolerated score per patch site (3)×the number of grading assessments (15).

[1] = test system: Primary human keratinocytes; details: at their respective concentration (Dox 1 μM) after 24 and 72 hours of exposure
Experimental: Cell death/apoptosis was determined by Propidium Iodide (PI) and Annexin V staining.
For the cell death/apoptosis, human primary neonatal keratinocytes were cultured (5,000 cells/well) in clear bottom 96-well plates overnight. The next morning, growth medium was removed and replaced with 50% supplemented keratinocyte growth medium containing compounds and controls.
After 24 or 72 hours treatment, 200 μL of the prepared 1:100 Annexin V (Biovision, catalog number K101) and PI in 1× binding buffer solution was added to each of the wells and allowed to incubate at room temperature for 5 minutes. Cells were then washed with DPBS (Dulbecco's Phosphate-Buffered Saline) and fixed for 30 minutes in 2% Paraformaldehyde (PFA). Following fixation, cells were washed 3× with 200 μL of DPBS. A final volume of 100 μL of DPBS were added to the wells. Quantification of Annexin V and PI were assessed using the Array Scan High Content Imaging System (ThermoFisher).
The signal quantified for Annexin V, an early apoptosis event marker (FIG. 5) and PI to assess cell death (apoptosis and necrosis) was compared to negative control (50% supplemented media) to determine the percentage of viability (FIG. 6).

TRKA = biological target: T1, TRKA (Homo sapiens, UniProt P04629); experiment: TRKA inhibition in cells (IC50); format: cell-based; details: read-out: half maximal inhibitory concentration (IC50) for TRKA
T1 construct: host or cells: cells, not specified
Source text: (§1) Compound A is a highly specific pan-TRK inhibitor with a mechanism of action that is competitive with the adenosine triphosphate (ATP) binding site of TRKA.

TRKB = biological target: T2, TRKB (Homo sapiens, UniProt Q16620); experiment: TRKB activity in cell-based system overexpressing wild-type full-length receptor; details: cell-based systems overexpressing wild-type, human TRK receptors
T2 construct: in cell-based systems overexpressing wild-type, full-length, human TRK receptors; expressed in transfected cells
Source text: as §1

TRKC = biological target: T3, TRKC (Homo sapiens, UniProt Q16288); experiment: TRKC activity in cell-based system overexpressing wild-type full-length receptor; details: cell-based systems overexpressing wild-type, human TRK receptors
T3 construct: in cell-based systems overexpressing wild-type, full-length, human TRK receptors; expressed in transfected cells
Source text: as §1

[2] = test system: adults with recurrent glioblastoma multiforme (GBM); details: up to 60 mg daily; cited from earlier work
[3] = Solubility of Compound A mesylate salt Form B in excipients and buffers; format: physicochemical
Experimental: The solubility was determined visually. The approximate amount of drug dissolved was calculated as mg/g of compound soluble in each solvent tested.
The steps involved in performing the solubility study were as follows: • a) Label scintillation vials appropriately for each excipient that were tested. • b) Stir bar was placed in each vial and weighed the empty vial containing stir bar and cap with inert liner. Recorded the TARE weight. • c) Approximately 5.0 g of each excipient was weighed into the designated vial and approximately 5 mg of the API (Compound A mesylate salt) was added to into each vial. • d) All the closed vials were placed on a multi-position stir plate and allowed to mix for at least 15 minutes at ambient conditions. • e) Visually inspected to see if the API has completely dissolved. • f) If the API has dissolved, the last 3 steps were repeated. Additional API aliquots added to the mixture were recorded till saturation solubility reached. […] Stirring the solutions was continued overnight at ambient temperature to confirm solubility is maintained. • g) If API has not completely dissolved, continue stirring samples overnight at ambient conditions. • h) The final weight of the vial, cap, stir bar, and sample were recorded. • i) Further, the final observations were recorded as needed to document the observations.

[4] = Drug excipient compatibility study (physical appearance, % label claim, total impurities); format: physicochemical
Experimental: The goal of the drug excipient compatibility study was to identify excipients that are incompatible with the Compound A mesylate salt (Form B), resulting in high impurity growth compared to the baseline (To). The compatibility of the compound in selected excipients was assessed by mixing the compound with individual excipients and placing the mixtures on stability studies for 2 or 4 weeks at 25° C./60% RH and 40° C./75% RH. If the compound was insoluble in any excipient, the sample was prepared by first dissolving Compound A mesylate salt in a solvent (purified water) and then mixing with the excipient in a 1:1 ratio. A stock solution of the Compound A mesylate salt in water (0.45% w/w) was used. The total level of impurities over 4 weeks at the two stability conditions were measured.
Physical appearance of Drug-Excipient mixture was evaluated visually, and the observations were recorded which are summarized in Table 2.
In summary, the compound was stable when mixed with the following chemicals: isopropyl myristate, ethanol, medium chain triglycerides, light mineral oil, cyclomethicone, white petrolatum, span 80, glycerin, sorbitol solution 70%, HPMC, HPC, and stearyl alcohol.

[5] = test system: Primary human keratinocytes; experiment: Human primary keratinocytes proliferation assay (BrdU incorporation); format: cell-based; details: for pIC50: Homo sapiens, Keratinocyte, read-out: calculated potency (IC50) to block cell proliferation
Experimental: Primary human keratinocytes (KMF112410A) were grown in 96-well plates and exposed to different concentration of Compound A mesylate salt, 0.1 nM to 100 μM, for 24 hours or 72 hours.
After 4 hours, the medium was removed and 100 μL of the Fixing/Denaturing solution (paraformaldehyde) was added to each well and allowed to incubate at room temperature for 30 minutes. After 30 minutes, the fixing solution was removed and 100 μl of the prepared 1× detection antibody (Cell Signaling Assay Kit, Catalogue No. 6813) was added to each well and allowed to incubate at room temperature for 1 hour. The plate was then washed 3 times with prepared wash buffer (details of wash buffer; PBS saline).
After washing, 100 μL of the prepared 1× Horseradish Peroxidase (HRP)-conjugated secondary antibody solution was added to each well and allowed to incubate at room temperature for 30 minutes. The plate was then washed 3 times with prepared wash buffer.
After washing the 100 μL 3,3′,5,5′-Tetramethylbenzidine (TMB) substrate was added to each well and incubated 30 minutes at room temperature. After 30 minutes, 100 μL of stop solution ([…]) was added to each well and the absorbance was read at 450 nm using a microplate Reader SpectraMax iD3 (Molecular Devices). The magnitude of the absorbance for the developed color is proportional to the quantity of BrdU incorporated into cells, which is a direct indication of cell proliferation, and negative control (50% supplemented keratinocyte growth medium alone) was used as reference to evaluate cell proliferation inhibition (levels <100%) or activation (levels >100%).

[6] = 28-day repeat dose dermal toxicity study; format: in vivo, minipig; details: Gottingen, minipig, in vivo, topical or ocular; for Cmax / AUC(0-t): 1 mg/kg/day dermal, Day 28; for AUC(0-t): read-out: AUC0-Tlast
Source text: (§2) Toxicity evaluation of Compound A mesylate salt has comprised range-finding and pivotal repeat dose dermal and oral toxicology studies in minipigs, rats and dogs. The dermal route of administration was chosen because it is the intended to be the human therapeutic route. As per International Council for Harmonisation (ICH) guidelines, the oral route was selected in rats and dogs to assess systemic toxicity and to support dermal administration. The minipig was selected as the species for formal dermal toxicology testing of Compound A mesylate salt.
(§3) To support dermal administration of Compound A mesylate, in addition to oral repeat-dose toxicity studies in rats and dogs, dermal toxicity studies in minipigs were conducted. A 28-day repeat dose toxicity study was conducted by dermal application of Compound A mesylate salt at doses in the range of 0.1 mg/kg to 1 mg/kg.
(§4) The 28-day dose toxicity study was initiated at doses in the range of 0.1 to 1.0 mg/kg.

Gottingen Minipigs = experiment: 28-day repeat dose dermal toxicity study; format: in vivo, minipig
Source text: as §2, §3, §4

minipigs = experiment: Non-GLP 7-day intravenous study; format: in vivo, minipig; details: daily for 7 days
Experimental: To understand the relationship between potential Compound A mesylate exposure and toxicity (clinical observations), a non-GLP intravenous study was conducted. In this study, minipigs were administered up to 10 mg/kg daily for 7 days by intravenous administration to determine Compound A mesylate exposure and clinical observations. Overall, minipigs tolerated intravenous dose of up to 10 mg/kg/day for 7 seven days without any adverse clinical signs.

[7] = Dog oral toxicity studies (one-month); format: in vivo; details: in vivo, one-month study
Source text: as §2
(§5) The NOAEL for the one-month study was 2 mg/kg/day.

dogs = experiment: Dog oral toxicity studies (one-month); format: in vivo
Source text: as §2, §5

[8] = One-month rat oral toxicity study; format: in vivo; details: in vivo, oral, for the myocardial findings
Source text: as §2
(§6) The NOAEL for these findings was 0.5 mg/kg/day.

rats = experiment: One-month rat oral toxicity study; format: in vivo
Source text: as §2, §6

rabbits = experiment: Skin irritation (erythema and edema); format: in vivo, rabbit
guinea pigs = experiment: Contact sensitization; format: in vivo, guinea pig
bovine cornea = experiment: Bovine corneal opacity and permeability (BCOP) assay
[9] = T = 0 (Table 3a, 25° C./60% RH)
[10] = T = 0 (Table 3b, 40° C./75% RH)

T3 sequence (Q16288 32-839): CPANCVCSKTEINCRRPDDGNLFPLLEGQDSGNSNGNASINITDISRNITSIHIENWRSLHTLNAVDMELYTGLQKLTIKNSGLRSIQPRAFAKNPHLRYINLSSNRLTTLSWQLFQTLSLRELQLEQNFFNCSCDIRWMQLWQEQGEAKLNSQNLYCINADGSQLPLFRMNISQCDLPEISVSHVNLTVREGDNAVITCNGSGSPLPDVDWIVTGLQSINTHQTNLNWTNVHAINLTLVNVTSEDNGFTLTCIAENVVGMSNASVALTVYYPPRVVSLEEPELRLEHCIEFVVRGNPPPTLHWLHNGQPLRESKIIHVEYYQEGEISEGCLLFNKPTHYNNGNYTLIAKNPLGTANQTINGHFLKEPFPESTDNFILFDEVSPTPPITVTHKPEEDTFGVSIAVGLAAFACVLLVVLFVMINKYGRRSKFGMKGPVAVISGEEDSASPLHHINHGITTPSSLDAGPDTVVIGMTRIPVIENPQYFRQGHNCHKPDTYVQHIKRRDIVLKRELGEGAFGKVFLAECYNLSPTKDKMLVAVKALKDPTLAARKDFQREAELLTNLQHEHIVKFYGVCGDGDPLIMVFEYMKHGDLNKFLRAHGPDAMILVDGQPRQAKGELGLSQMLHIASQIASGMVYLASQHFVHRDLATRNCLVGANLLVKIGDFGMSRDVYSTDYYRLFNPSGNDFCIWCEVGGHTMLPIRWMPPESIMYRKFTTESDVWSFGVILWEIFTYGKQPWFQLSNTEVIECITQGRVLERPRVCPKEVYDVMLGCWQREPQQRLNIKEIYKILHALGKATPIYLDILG
T1 sequence (P04629 33-796): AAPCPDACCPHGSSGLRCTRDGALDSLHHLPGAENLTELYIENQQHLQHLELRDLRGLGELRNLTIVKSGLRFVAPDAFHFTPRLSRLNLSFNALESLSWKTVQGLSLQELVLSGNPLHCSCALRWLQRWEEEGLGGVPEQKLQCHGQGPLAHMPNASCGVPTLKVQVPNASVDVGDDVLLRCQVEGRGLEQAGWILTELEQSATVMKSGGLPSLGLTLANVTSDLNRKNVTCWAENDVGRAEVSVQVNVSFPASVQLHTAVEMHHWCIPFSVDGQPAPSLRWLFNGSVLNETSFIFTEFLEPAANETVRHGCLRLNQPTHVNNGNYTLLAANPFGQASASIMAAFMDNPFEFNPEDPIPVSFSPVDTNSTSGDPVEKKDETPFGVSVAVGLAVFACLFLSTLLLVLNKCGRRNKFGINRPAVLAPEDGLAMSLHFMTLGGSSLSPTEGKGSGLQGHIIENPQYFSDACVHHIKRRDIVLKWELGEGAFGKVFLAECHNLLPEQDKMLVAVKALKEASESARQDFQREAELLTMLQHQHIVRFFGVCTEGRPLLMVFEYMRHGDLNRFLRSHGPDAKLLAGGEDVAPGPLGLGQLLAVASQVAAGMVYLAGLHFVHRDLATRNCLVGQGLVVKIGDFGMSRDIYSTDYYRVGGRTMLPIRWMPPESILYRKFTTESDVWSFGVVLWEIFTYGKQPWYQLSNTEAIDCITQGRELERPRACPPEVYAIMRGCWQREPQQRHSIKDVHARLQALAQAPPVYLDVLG
T2 sequence (Q16620 32-822): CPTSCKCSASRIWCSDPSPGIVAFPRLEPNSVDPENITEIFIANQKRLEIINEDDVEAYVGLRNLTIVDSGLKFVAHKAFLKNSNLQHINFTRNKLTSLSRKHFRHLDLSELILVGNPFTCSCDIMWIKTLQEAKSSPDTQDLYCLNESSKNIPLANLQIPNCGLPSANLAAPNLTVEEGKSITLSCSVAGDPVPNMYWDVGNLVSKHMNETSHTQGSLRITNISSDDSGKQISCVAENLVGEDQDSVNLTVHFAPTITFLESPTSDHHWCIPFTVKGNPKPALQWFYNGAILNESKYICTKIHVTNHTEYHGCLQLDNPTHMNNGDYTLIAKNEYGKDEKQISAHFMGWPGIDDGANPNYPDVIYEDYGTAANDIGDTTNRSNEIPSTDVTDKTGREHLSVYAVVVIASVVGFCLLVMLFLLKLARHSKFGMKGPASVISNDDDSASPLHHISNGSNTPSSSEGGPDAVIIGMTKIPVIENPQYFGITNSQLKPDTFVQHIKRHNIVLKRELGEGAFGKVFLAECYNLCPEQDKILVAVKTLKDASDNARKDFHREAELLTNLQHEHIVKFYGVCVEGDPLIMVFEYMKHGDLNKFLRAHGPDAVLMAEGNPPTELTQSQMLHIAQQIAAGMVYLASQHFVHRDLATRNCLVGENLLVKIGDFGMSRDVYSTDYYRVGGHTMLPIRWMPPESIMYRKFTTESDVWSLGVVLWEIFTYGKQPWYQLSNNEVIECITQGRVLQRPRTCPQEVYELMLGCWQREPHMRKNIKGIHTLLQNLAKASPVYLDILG

Structure (SMILES): CCCCCCCCCCCCOS(=O)(=O)[O-].[Na+] [0.25% Sodium Lauryl Sulfate, sodium lauryl sulfate]
- Cumulative Irritation Index (CII) (human skin): 0.24
- Mean Cumulative Irritation Score (human skin): 10.89
- Mean Daily Score (human skin): 0.73
- Sum of Cumulative Scores (human skin): 294

Structure (SMILES): COC(=O)[C@@]1(O)C[C@H]2O[C@]1(C)n1c3ccccc3c3c4c(c5c6ccccc6n2c5c31)C(=O)NC4 [Compound K252a]
- cell death (Annexin V / PI) versus negative control [1]: significant cell death

Structure (SMILES): CC(C)Oc1cc(-n2cnc3ccc(N[C@@H](C)c4ncc(F)cn4)nc32)n[nH]1 [Compound A, N-[(1S)-1-(5-fluoropyrimidin-2-yl)ethyl]-3-(5-isopropoxy-1H-pyrazol-3-yl)-3H-imidazo[4,5-b]pyridin-5-amine]
- pIC50 (TRKA): 9.70
- in-vitro activity against TRKB, concentration (TRKB): below 5 nM
- in-vitro activity against TRKC, concentration (TRKC): below 5 nM
- early efficacy signals in GBM patients [2]: No early efficacy signals

Structure (SMILES): CC(C)Oc1cc(-n2cnc3ccc(N[C@@H](C)c4ncc(F)cn4)nc32)n[nH]1.CS(=O)(=O)O [Compound A mesylate salt, N-[(1S)-1-(5-fluoropyrimidin-2-yl)ethyl]-3-(5-isopropoxy-1H-pyrazol-3-yl)-3H-imidazo[4,5-b]pyridin-5-amine mesylate]
- Solubility ([3]; in Ethanol, 24 hours at room temperature, visual): ≥6.61 mg/g
- water solubility ([3]; in water): ~9.5 % w/w
- Observation ([3]; solubility study in Citrate buffer (pH 5.6)): Aggregated
- Observation ([3]; solubility study in Ethanol): Solubilized
- Observation ([3]; solubility study in Phosphate buffer (pH 7.4)): Aggregated
- % Label Claim [4, 9]: 99.9%
- Total Impurities (%) [4, 9]: 0.00%
- % Label Claim [4, 10]: 99.9%
- Total Impurities (%) [4, 10]: 0.00%
- % Label Claim ([4]; T = 2 weeks, 25° C./60% RH): 99.2%
- Total Impurities (%) ([4]; T = 2 weeks, 25° C./60% RH): 0.00%
- % Label Claim ([4]; T = 2 weeks, 40° C./75% RH): 99.7%
- Oxidation Adjusted ([4]; T = 2 weeks, 40° C./75% RH): 0.00
- Total Impurities (%) ([4]; T = 2 weeks, 40° C./75% RH): 0.00%
- % Label Claim ([4]; T = 4 weeks, 25° C./60% RH): 100.5%
- Total Impurities (%) ([4]; T = 4 weeks, 25° C./60% RH): 0.00%
- % Label Claim ([4]; T = 4 weeks, 40° C./75% RH): 99.1%
- Oxidation Adjusted ([4]; T = 4 weeks, 40° C./75% RH): 0.00
- Total Impurities (%) ([4]; T = 4 weeks, 40° C./75% RH): 0.00%
- pIC50 ([5]; 24 hours): 5.90
- pIC50 ([5]; 72 hours): 7.01
- dose showing significant inhibition of proliferation ([5]; after 24 hours of treatment): ≥ 100 nM
- dose showing significant inhibition of proliferation ([5]; after 72 h treatment): ≥ 10 nM
- NOAEL at 28 days ([6]; both sexes, dermal, 28 days): 1 mg/kg/day
- Cmax ([6]; female, females): 2.52 ng/mL
- AUC(0-t) ([6]; female, females): 37.2 ng·h/mL
- Cmax ([6]; male, males): 3.03 ng/mL
- AUC(0-t) ([6]; male, males): 32.6 ng·h/mL
- tolerability of dermal application (Gottingen Minipigs; 0.1, 0.3, and 1 mg/kg/day for 28 consecutive days): well tolerated
- systemic exposure after dermal administration compared to intravenous administration (Gottingen Minipigs; minipigs): significantly lower
- tolerated intravenous dose without any adverse clinical signs (minipigs): up to 10 mg/kg/day
- NOAEL at 1 month [7]: 2 mg/kg/day
- effects on body weight, food consumption, clinical pathology, or histopathology (dogs): no compound-related effects
- tolerability (dogs; episodes of emesis and soft/fluid feces): generally well tolerated
- NOAEL at 1 month [8]: 0.5 mg/kg/day
- histopathological findings (rats): myocardial inflammation, fibrosis and increased plasma phosphate and Troponin I in a minority of animals
- food consumption and body weight gain (rats; all dose levels): marked increase
- irritation (erythema and edema) (rabbits): non-irritant
- contact sensitization (guinea pigs): not considered to be contact sensitizers
- ocular irritation (bovine cornea): did not induce ocular irritation
